Experimental data: EP3150203B1, “COMPOUNDS WITH (1E,6E)-1,7-BIS-(3,4- DIMETHOXYPHENYL)-4,4-DISSTITUTED-HEPA-1,6-DIENE-3,5-DI-ONE STRUCTURAL SCAFFOLD,THEIR BIOLOGICAL ACTIVITY, AND USES THEREOF” (Allianz Pharmascience Ltd, priority 2012, dated 2013)
Positions count from the first letter of the chain named. pIC50: −log10 of the molar value.

Assays:
[1] = test system: CWR22Rv1 cells (human prostate cancer); assay: MTT cell growth assay, CWR22Rv1 cells; assay type: cell-based; conditions: Homo sapiens, 120 h, 5 days, read-out: Inhibition of Tumor cells growth IC50
Protocol: The MTT cell proliferation assay was applied in the present invention to detect the capability of compounds to suppress or inhibit prostate cancer cells growth. […] Briefly, 1 x 10^3 LNCaP or CWR22Rv1 cells suspended in complete medium were plated into each well of a 96-well Microtest III tissue culture plate (Falcon, NJ). Two days later, the medium was replaced with RPMI-1640 medium containing 10% charcoal/dextran-deprived FBS (hormone-deprived fetal bovine serum). Testing compounds were added to the medium at indicated concentrations with or without 1 nM DHT and cells were cultured for 5 days in an incubator (at 37 °C). MTT substrate solution (5 mg/ml in PBS) in 1/10 of volume was added to the cells in each well at 2 hours before harvesting. After 2 hour incubation, the plates were centrifuged (10 min at 1,000 rpm) and the supernatant from each well was carefully removed. A 100 µl of lysis buffer (50% dimethyl formamide, 5% sodium dodecyl sulphate, 0.35 M acetic acid, and 50 mM HCl) was added to each well to lyse the cells and dissolved tetrazolium in each well. The relative quantity of enzyme activity from each well was measured based on absorbance read at a wavelength of 450 nm using a Bio-RAD BenchMark microplate reader. Data derived from the MTT assay were also verified by the actual cell count and cell morphology on a separate plate set up in parallel.
For inhibition of tumor cell growth, in vitro, cells were growth in the presence of testing compounds for 5 days, and the cell growth was assayed by standard MTT assay. […] Table 2: Biological activity of Compounds and Derivatives having (1E, 6E)-1,7-bis-(3,4-dimethoxyphenyl)-4,4-disubstituted-hepta-1,6-diene-3,5-dione OR (1E, 10E)-1,11-bis(substituted phenyl)- 6,6-disubstituted undeca-1,3,8,10-tetraene-5,7-dione structural scaffold

AR protein = target: T1, AR protein (Homo sapiens, UniProt P10275, T878A); assay: Cycloheximide chasing assay of AR degradation in LNCaP cells; assay type: cell-based; conditions: in the presence of cycloheximide (CHX) (FIG. 7)
T1 sequence (P10275 1-920 T878A): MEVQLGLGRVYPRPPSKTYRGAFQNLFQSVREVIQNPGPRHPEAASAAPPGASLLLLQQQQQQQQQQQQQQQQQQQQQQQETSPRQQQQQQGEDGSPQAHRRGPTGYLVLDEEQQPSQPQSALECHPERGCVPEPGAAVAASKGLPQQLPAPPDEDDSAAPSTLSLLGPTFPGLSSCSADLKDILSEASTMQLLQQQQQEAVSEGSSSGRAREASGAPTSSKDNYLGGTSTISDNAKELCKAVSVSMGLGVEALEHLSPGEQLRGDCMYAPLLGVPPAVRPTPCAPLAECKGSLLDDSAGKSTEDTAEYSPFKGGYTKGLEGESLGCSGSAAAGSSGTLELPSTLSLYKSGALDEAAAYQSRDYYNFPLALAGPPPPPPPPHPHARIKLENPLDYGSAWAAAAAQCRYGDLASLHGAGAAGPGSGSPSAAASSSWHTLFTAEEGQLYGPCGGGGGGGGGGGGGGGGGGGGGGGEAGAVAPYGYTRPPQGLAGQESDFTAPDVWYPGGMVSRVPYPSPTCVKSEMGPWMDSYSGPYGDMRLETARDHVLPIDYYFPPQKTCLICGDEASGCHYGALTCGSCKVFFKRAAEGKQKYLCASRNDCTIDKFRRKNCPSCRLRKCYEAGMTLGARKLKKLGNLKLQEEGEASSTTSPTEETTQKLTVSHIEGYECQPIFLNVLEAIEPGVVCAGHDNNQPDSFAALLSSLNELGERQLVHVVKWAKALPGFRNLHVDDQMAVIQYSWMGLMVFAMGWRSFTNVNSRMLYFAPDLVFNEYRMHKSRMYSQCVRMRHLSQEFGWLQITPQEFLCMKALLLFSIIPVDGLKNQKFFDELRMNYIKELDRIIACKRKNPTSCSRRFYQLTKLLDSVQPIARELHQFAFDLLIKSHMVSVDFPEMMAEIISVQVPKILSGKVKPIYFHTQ
Protocol: AR protein "degradation" in prostate cancer cells was measured by using cycloheximide (a protein synthesis inhibitor) chasing assay method. Briefly, LNCaP cells were incubated with testing ASC compound at the designated concentrations for 24 hours. Subsequently, cycloheximide was added to the cells at a concentration of 15 µg/ml to block new protein synthesis. After incubation, cells were harvested at designated time periods and the resultant change in AR protein levels were analysed using Western Blot analysis as described above.

Androgen Receptor (AR) [2] = target: T2, Androgen Receptor (AR) (Homo sapiens, UniProt P10275, H875Y, form not given); assay: Western Blot analysis of AR protein expression in CWR22Rv1 cells; assay type: cell-based; conditions: various concentrations, Western Blot (FIG. 6)
T2 sequence (P10275 1-920 H875Y): T1 sequence (P10275 1-920 T878A) with H875Y, A878T

Androgen Receptor (AR) [3] = target: T3, Androgen Receptor (AR) (Homo sapiens, UniProt P10275, T878A); assay: Western Blot analysis of AR protein expression in LNCaP cells; conditions: various concentrations, Western Blot (FIG. 6)
T3 sequence (P10275 1-920 T878A): T1 sequence (P10275 1-920 T878A)

SMILES | pIC50 [1] | AR protein degradation (AR protein) | reducing endogenous AR expression (Androgen Receptor (AR) [2]) | reducing endogenous AR expression (Androgen Receptor (AR) [3])
COc1ccc(C=CC(=O)C=C(O)C=Cc2ccc(OC)c(OC)c2)cc1OC [ASC-J9®, 1,7-Bis-(3,4-dimethoxy-phenyl)-5-hydroxy-hepta-1,4,6-trien-3-one, reference compound] | 5.40 | enhances AR protein degradation | – | –
COc1ccc(/C=C/C(=O)C(C(=O)/C=C/c2ccc(OC)c(OC)c2)=C(O)/C=C/c2ccc(OC)c(OC)c2)cc1OC [ASC-JM4] | – | – | capable of reducing endogenous AR expression | capable of reducing endogenous AR expression
COc1ccc(/C=C/C(=O)C2CC(c3ccc(OC)c(OC)c3)(C(C(=O)/C=C/c3ccc(OC)c(OC)c3)C(=O)/C=C/c3ccc(OC)c(OC)c3)CC2=O)cc1OC (centres unmarked) [ASC-JM5] | – | enhances AR protein degradation | – | –
